Format in all cases: biochemical
One assay addresses T1, IRAK4 (h) (Homo sapiens, UniProt Q9NWZ3).
T1 construct: purchased Eurofins Scientific Inc. Korea (contract assay service)
T1 sequence (Q9NWZ3 1-460): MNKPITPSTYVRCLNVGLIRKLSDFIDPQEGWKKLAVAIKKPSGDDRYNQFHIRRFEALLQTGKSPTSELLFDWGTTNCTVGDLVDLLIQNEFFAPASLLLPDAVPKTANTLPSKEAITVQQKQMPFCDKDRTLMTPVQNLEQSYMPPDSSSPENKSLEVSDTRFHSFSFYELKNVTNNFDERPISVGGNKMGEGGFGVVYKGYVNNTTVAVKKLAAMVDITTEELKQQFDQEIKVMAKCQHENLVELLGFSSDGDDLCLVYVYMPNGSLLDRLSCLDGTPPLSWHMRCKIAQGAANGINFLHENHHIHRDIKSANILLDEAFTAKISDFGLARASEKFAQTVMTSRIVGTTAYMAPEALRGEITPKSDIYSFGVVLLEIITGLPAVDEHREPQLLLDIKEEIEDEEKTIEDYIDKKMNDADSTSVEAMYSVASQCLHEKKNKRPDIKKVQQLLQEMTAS
The assay is described as follows: Enzymatic assay for IRAK4 (radiometric, Eurofins). The conditions noted are these: for pIC50: in vitro enzymatic assay, duplicate, average, read-out: IC50 against IRAK4. As for the experimental part:
(§1) Enzymatic assays for IRAK4, ASK1, ITK, and LYN were performed by Eurofins Scientific Inc. Korea (Brussels, Belgium). All assays were performed in duplicate, and the average IC50 value was reported.
(§2) IRAK4 (h) was incubated with 8 mM MOPS pH 7.0, 0.2 mM EDTA, 0.33 mg/mL myelin basic protein, 10 mM Mg acetate and [γ-^33P]-ATP (specific activity approx. 500 cpm/pmol, concentration as required). The reaction was initiated by the addition of a MgATP mix. After incubation for 40 min at room temperature, the reaction was stopped by the addition of 3% phosphoric acid solution. A total of 10 μL of the reaction was then spotted onto a P30 filtermat and washed three times for 5 min in 75 mM phosphoric acid, and once in methanol prior to drying and scintillation counting.

In the next assay the target is T2, ASK1 (h) (Homo sapiens, UniProt Q99683).
T2 construct: purchased Eurofins Scientific Inc. Korea (contract assay service)
T2 sequence (Q99683 1-1374): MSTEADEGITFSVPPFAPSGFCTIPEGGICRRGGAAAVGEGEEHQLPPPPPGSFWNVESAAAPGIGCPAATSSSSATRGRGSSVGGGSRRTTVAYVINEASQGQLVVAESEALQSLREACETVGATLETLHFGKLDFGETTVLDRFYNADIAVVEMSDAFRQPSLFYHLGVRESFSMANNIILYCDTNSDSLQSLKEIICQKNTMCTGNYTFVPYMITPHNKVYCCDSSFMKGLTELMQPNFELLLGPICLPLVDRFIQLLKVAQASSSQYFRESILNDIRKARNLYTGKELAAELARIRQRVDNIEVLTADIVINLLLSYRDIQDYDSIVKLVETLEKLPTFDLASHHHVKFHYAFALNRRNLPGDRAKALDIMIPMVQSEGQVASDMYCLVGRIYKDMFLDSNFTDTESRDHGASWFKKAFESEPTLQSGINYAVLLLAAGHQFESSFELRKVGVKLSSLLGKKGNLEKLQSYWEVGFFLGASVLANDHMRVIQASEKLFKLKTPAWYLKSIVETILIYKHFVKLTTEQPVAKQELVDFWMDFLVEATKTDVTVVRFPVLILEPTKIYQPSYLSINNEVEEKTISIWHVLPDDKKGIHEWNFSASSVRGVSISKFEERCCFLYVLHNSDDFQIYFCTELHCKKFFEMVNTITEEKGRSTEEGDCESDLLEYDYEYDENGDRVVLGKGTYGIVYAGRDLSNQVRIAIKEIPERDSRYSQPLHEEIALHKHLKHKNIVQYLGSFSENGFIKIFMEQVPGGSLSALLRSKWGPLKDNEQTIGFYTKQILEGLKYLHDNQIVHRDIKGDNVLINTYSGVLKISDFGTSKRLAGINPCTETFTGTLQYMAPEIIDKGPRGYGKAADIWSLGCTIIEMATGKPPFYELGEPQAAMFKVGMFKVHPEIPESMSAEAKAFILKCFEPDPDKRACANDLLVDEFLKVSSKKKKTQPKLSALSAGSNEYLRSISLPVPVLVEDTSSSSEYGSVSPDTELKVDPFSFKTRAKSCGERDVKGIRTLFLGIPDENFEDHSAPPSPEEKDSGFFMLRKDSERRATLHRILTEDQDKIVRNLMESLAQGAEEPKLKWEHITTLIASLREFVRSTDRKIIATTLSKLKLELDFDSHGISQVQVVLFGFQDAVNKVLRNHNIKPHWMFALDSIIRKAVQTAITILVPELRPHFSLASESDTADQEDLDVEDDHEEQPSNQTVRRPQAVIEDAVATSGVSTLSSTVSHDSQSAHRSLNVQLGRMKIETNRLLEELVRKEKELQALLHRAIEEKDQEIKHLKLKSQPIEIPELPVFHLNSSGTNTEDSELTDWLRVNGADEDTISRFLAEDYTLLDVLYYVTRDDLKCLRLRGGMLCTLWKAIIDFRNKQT
The assay is described as follows: Enzymatic assay for ASK1 (radiometric, Eurofins). The conditions noted are these: in vitro enzymatic assay, duplicate, average; read-out: IC50 against ASK1. As for the experimental part: as §1
ASK1 (h) was incubated with 8 mM MOPS pH 7.0, 0.2 mM EDTA, 0.33 mg/mL myelin basic protein, 10 mM Mg acetate and [γ-^33P]-ATP (specific activity approx. 500 cpm/pmol, concentration as required). The reaction was initiated by the addition of the MgATP mix. After incubation for 40 min at room temperature, the reaction was stopped by the addition of 3% phosphoric acid solution. A total of 10 μL of the reaction was then spotted onto a P30 filtermat and washed three times for 5 min in 75 mM phosphoric acid, and once in methanol prior to drying and scintillation counting.

The next assay concerns the target T3, ITK (h) (Homo sapiens, UniProt Q08881).
T3 construct: purchased Eurofins Scientific Inc. Korea (contract assay service)
T3 sequence (Q08881 1-620): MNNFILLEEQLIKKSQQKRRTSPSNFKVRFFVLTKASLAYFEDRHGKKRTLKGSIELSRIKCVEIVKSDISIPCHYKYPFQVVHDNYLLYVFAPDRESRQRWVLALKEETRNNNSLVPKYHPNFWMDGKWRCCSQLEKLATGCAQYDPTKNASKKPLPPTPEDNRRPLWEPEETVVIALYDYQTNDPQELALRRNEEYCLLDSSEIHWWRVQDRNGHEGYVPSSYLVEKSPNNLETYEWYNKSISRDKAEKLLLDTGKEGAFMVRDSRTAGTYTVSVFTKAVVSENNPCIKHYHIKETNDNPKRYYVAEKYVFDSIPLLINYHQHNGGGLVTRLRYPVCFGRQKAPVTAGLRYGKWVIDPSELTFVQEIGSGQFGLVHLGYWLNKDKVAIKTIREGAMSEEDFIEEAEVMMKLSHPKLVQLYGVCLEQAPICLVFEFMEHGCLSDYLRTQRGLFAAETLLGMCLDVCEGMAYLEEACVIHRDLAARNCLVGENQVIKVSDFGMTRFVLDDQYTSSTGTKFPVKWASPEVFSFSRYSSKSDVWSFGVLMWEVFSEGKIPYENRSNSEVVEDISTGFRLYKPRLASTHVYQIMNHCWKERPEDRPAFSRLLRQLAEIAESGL
The assay is described as follows: Enzymatic assay for ITK (radiometric, Eurofins). The conditions noted are these: in vitro enzymatic assay, duplicate, average; read-out: IC50 against ITK. How it is done: as §2, with “Enzymatic assays for IRAK4, ASK1, ITK, and LYN were performed by Eurofins Scientific Inc. Korea (Brussels, Belgium). All assays were performed in duplicate, and the average IC50 value was reported. ITK (h)” for “IRAK4 (h)”, “Mg acetate,” for “Mg acetate”, “of the” for “of a”

The target in another assay is T4, LYN (h) (Homo sapiens, UniProt P07948).
T4 construct: purchased Eurofins Scientific Inc. Korea (contract assay service)
In words: Enzymatic assay for LYN (radiometric, Eurofins). The conditions noted are these: in vitro enzymatic assay, duplicate, average; read-out: IC50 against LYN. As for the experimental part: Enzymatic assays for IRAK4, ASK1, ITK, and LYN were performed by Eurofins Scientific Inc. Korea (Brussels, Belgium). All assays were performed in duplicate, and the average IC50 value was reported. LYN (h) was incubated with 50 mM Tris pH 7.5, 0.1 mM EGTA, 0.1 mM Na3VO4, 0.1% […], 0.1 mg/mL poly(Glu, Tyr) 4:1, 10 mM Mg acetate, and [γ-^33P]-ATP (specific activity approx. 500 cpm/pmol, concentration as required). The reaction was initiated by the addition of the MgATP mix. After incubation for 40 min at room temperature, the reaction was stopped by the addition of 3% phosphoric acid solution. A total of 10 μL of the reaction was then spotted onto a Filtermat A and washed three times for 5 min in 75 mM phosphoric acid, and once in methanol prior to drying and scintillation counting.

pIC50: −log10 of the molar value.

T4 sequence (P07948 whole entry): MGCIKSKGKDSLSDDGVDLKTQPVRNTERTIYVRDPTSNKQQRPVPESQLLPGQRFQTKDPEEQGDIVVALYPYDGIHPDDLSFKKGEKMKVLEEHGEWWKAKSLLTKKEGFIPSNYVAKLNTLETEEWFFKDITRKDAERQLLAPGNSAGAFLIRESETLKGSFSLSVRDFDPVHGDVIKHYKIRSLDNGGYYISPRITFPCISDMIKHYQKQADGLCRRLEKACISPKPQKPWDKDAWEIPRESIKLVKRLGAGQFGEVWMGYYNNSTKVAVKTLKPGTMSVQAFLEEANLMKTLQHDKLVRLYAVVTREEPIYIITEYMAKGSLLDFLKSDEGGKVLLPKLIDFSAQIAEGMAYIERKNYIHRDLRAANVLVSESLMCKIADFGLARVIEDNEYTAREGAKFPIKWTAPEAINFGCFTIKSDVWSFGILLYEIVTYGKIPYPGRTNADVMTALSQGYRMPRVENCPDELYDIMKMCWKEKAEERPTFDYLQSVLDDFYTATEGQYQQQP

As a reminder, the pIC50 is −log10 of the IC50, conventionally taken in molar units. Take “4-(5-Benzylamino-imidazo[4,5-b]pyridine-1-yl)-benzonitrile [Compound 3]”: the “inhibition of IRAK4” value at IRAK4 (h) (at 10 μM) turned out to be 97%. In addition, the pIC50 at IRAK4 (h) is 6.80.

On to `CC(C)(C)c1ccc(C(=O)Nc2cn3cc(-n4ccnc4)ccc3n2)cc1` [Compound 1], for which the pIC50 on IRAK4 (h) is 6.73; at ASK1 (h) it was 7.28; on ITK (h), 5.78; at LYN (h) it was 5.62.

Take `COCc1nc2ccc(NC(=O)c3ccc(Br)o3)cc2[nH]1` [Compound 2]: on IRAK4 (h), the pIC50 was 5.18.

The values are drawn from paper PMC6321621, “Design of a Novel and Selective IRAK4 Inhibitor Using Topological Water Network Analysis and Molecular Modeling Approaches” (Molecules, 2018).
